Experimental findings from patent publication US11040984B2, “Quinazoline compound for EGFR inhibition” (MEDSHINE DISCOVERY INC., priority 2016, dated 2021) are described below.

Counter-ions that a name gives are not always drawn. A value given as a limit tells only on which side of the number the result lay.

A word on the IC50: it is the concentration needed to halve the response being measured.

One assay relates to PC-9 (Δ19del) cells. As to the kind of experiment: Anti-PC-9 cell proliferation (Cell-Titer Glo, 72 hours). It counts as cell-based. Particulars: Homo sapiens, PC-9 cells, read-out: Anti-PC-9 (Δ19del) cell proliferative activity IC50. As for the experimental part:
RPMI 1640 medium, FBS fetal bovine serum and trypsin-EDTA were purchased from Giboco. DPBS was purchased from Corning, penicillin/streptomycin solution from Hyclone, Cell-Titer Glo reagent from Promega (1 kit, Cat. No. G7571). PC-9 was built by WuXi itself. Plate reader: Envision (Perkin Elmer).
(§1) 45 μL Culture media was added to columns 1, 2, 24 of a 384-well plate, repectively. The cell suspension was separated by Multi-drop, 45 μL (1000 cells) per well, which was placed and cultured in an incubator overnight. A compound was added to the source plate according to the requirement of Echo liquid-separation. The compound in the source plate was added to the interplate and diluted to an intermediate concentration, then the compound in the source plate and the interplate was added to the cell plate, and the cells were further cultured in the incubator for 72 hours. After 72 hours, Cell-Titer Glo reagent and cells were taken out and equilibrated at room temperature for 30 minutes. 25 μL Cell-Titer Glo reagent was separated into the cells in 384-well plate by Multi-drop, shaken at medium speed for 3 minutes, centrifuged at 1000 rpm for 2 minutes, and kept for 10 minutes. Envision was used to read the plate (Luminescence).

A further assay addresses EGFR WT (Homo sapiens (Human), UniProt P00533). As to the kind of experiment: Kinase assay (HTRF KinEASE TK), wild-type EGFR enzyme. Type of assay: biochemical. An excerpt:
(§2) Detection of inhibitory effects of compounds on enzymatic activities of EGFR WT, EGFR [L858R] and EGFR [d746-750]
(§3) EGFR WT (Invitrogen, Cat. No PR7295B), EGFR [L858R] (Invitrogen, Cat. No PR7447A), EGFR [d746-750](Invitrogen, Cat. No PV6179), ATP (Sigma, Cat. No. A7699-1G), DMSO (Sigma, Cat. No. D2650), DTT (Sigma, Cat. No. 43815), 384-well plates compound dilution plates (Greiner, Cat. No. 781280), 384-well plates_test plates (Perkin Elmer, Cat. No. 6007299), HTRF KinEASE TK Kit (Cisbio, Cat. No. 62TKOPEB), MgCl2 (Sigma, Cat. No. M1028), Orthovanadate (Sigma, Cat. No. S6508), BSA (Sigma, Cat. No. A7030), HEPES (Life technology, Cat. No. 11344-041)
(§4) The final test concentrations of the test compounds ranged from 10 μM to 0.17 nM, with serial 3-fold dilutions and 11 gradient concentrations.
(§5) Buffer formulation: a buffer consisted of 50 mM HEPES (pH 7.5), 0.01% BSA, 5 mM MgCl2, 0.1 mM Orthovanadate. After the buffer was formulated, an enzyme and a substrate were mixed with pre-diluted compounds of varying concentrations, and placed at room temperature for 15 minutes. The reaction was initiated by adding ATP and incubated at room temperature for 60 minutes (wherein negative and positive controls were set up). The 10 μL reaction system consisted of a 2.5 μL compound, a 5 μL mixture of enzyme and substrate, and 2.5 μL ATP. After the reaction was complete, antibodies were added to test, the detection was performed with Evnvision after incubation at room temperature for 60 minutes, and data were collected. Data analysis and simulation were performed using XLfit5 software.
On the technique in general: TR-FRET usually uses a lanthanide donor and a delayed reading to cut background.

For a further assay, the target named is EGFR [d746-750] (Homo sapiens (Human), UniProt P00533, DEL746-750). Kind of assay: Kinase assay (HTRF KinEASE TK), EGFR exon 19 deletion enzyme. Type of assay: biochemical.
From the text: as §2, §3, §4, §5

The test system of the next assay is A431 cells. Kind of assay: Anti-A431 cell proliferation. It counts as cell-based. The note with it: Homo sapiens, A-431, read-out: Anti-A431 cell proliferative activity IC50. As for the experimental part: as §1
The next assay deals with EGFR [L858R] (Homo sapiens (Human), UniProt P00533, L858R). As to the kind of experiment: Kinase assay (HTRF KinEASE TK), EGFR L858R enzyme. Type of assay: biochemical.
From the text: as §2, §3, §4, §5

Sequence of EGFR [d746-750] (P00533 other isoform, or with tags, fused parts or gaps del 1-667/del 746-750 limits assumed): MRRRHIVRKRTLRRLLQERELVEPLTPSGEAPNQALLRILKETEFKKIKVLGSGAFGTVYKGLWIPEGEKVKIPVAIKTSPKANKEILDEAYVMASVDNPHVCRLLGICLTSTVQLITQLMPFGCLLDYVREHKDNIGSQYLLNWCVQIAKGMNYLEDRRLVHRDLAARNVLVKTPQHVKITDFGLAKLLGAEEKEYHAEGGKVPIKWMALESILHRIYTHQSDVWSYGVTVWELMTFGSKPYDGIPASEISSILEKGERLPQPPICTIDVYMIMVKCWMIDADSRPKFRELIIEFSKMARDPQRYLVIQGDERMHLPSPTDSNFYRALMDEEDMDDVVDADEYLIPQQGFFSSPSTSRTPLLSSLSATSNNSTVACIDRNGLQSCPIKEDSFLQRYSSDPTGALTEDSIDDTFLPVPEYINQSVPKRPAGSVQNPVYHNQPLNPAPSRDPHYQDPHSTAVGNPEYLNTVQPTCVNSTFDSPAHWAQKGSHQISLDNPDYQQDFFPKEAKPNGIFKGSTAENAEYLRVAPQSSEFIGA
Sequence of EGFR WT (P00533 25-1210): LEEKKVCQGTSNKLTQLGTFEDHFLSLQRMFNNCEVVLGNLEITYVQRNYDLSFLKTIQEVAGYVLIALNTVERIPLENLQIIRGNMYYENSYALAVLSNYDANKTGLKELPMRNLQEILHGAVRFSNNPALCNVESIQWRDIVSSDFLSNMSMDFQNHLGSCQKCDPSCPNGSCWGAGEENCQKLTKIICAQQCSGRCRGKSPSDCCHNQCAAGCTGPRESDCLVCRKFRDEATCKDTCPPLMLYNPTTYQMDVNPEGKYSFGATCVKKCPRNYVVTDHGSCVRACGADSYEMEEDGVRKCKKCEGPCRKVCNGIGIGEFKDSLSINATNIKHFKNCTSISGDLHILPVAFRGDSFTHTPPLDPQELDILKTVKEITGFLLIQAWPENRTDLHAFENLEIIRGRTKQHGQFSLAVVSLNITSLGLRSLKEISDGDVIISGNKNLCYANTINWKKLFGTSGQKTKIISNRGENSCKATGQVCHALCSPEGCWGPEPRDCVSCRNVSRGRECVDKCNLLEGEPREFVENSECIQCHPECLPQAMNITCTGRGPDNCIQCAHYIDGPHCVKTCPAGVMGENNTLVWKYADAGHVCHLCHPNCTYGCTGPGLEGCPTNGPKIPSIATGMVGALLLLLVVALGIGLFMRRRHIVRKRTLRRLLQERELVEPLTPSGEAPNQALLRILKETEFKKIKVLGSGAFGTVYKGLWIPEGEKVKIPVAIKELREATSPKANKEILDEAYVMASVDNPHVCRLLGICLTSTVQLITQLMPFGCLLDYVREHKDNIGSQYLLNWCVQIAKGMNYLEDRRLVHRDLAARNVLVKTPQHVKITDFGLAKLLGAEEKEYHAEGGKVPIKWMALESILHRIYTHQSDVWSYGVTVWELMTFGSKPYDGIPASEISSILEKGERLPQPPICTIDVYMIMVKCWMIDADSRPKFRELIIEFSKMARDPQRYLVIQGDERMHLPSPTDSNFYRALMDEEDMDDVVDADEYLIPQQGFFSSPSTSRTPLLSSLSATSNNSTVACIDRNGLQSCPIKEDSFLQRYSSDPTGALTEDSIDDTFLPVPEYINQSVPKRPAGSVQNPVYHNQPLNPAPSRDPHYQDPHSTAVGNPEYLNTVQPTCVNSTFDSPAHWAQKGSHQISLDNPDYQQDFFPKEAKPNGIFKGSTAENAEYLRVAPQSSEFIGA
Sequence of EGFR [L858R] (P00533 25-1210 L858R): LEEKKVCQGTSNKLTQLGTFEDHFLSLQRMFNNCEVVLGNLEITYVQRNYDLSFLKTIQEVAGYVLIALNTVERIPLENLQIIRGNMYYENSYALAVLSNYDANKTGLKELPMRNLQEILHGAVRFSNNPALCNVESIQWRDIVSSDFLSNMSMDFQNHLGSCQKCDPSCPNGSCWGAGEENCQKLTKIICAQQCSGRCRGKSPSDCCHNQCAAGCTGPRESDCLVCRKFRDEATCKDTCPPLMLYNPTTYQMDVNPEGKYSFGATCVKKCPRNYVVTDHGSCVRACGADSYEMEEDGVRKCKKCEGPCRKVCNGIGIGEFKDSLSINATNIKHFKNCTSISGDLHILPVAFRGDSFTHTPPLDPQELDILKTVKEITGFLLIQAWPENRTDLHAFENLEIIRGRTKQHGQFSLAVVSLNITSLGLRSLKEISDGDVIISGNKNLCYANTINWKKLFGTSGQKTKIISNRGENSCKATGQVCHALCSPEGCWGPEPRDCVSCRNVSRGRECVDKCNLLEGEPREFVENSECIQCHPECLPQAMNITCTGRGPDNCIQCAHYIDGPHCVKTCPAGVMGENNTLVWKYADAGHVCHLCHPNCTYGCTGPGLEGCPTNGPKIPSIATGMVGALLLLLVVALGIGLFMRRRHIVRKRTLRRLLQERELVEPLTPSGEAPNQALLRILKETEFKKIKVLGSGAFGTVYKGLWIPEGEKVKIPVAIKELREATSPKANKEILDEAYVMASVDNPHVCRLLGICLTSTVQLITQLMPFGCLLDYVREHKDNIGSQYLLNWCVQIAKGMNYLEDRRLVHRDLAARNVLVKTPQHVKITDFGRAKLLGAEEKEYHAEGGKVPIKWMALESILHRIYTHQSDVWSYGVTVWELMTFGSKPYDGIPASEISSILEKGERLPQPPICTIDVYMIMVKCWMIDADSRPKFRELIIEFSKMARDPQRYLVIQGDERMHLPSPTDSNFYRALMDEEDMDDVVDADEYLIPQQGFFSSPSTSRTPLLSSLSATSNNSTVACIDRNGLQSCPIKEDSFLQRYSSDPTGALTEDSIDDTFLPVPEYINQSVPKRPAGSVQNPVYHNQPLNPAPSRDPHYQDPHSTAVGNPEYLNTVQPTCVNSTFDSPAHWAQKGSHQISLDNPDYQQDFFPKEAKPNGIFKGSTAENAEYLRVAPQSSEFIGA

On to `COc1cc2ncnc(Oc3cccc(Cl)c3)c2cc1N1CC2(CCN(C)CC2)OC1=O` [Compound 16], for which, in the assay with PC-9 (Δ19del) cells, the IC50 is 540 nM.

As to `COc1cc2ncnc(Nc3cccc(Cl)c3F)c2cc1N1C[C@H](CN(C)C)OC1=O` [Compound 18], the IC50 against EGFR WT was under 0.015 nM; on EGFR [d746-750] it was 0.05 nM; with PC-9 (Δ19del) cells, 12.5 nM; with A431 cells, 59 nM.

With `COC[C@@H]1CN(c2cc3c(Nc4cccc(Cl)c4F)ncnc3cc2OC)C(=O)O1` [Compound 23], the IC50 against EGFR WT worked out at 0.038 nM; against EGFR [d746-750], 0.17 nM; with PC-9 (Δ19del) cells, 24 nM.

With `CCN1CC2(C1)CN(c1cc3c(Nc4cccc(Cl)c4F)ncnc3cc1OC)C(=O)O2` [Compound 25], the IC50 is 0.022 nM against EGFR WT, 0.069 nM on EGFR [d746-750], 6.76 nM in the assay on PC-9 (Δ19del) cells and 64 nM with A431 cells.

For the compound `COc1cc2ncnc(Nc3cccc(Cl)c3F)c2cc1N1CC2(CN(C(C)C)C2)OC1=O` [Compound 26], the IC50 came to 7.2 nM with PC-9 (Δ19del) cells and 98 nM in the assay with A431 cells.

On to `COc1cc2ncnc(Oc3cccc(Cl)c3)c2cc1N1CC2(CN(C)C2)OC1=O` [Compound 27], for which the half-maximal inhibitory concentration (IC50) in the assay with PC-9 (Δ19del) cells is 84 nM.

Regarding `COc1cc2ncnc(Nc3cccc(Cl)c3F)c2cc1N1CC2(CN(CCF)C2)OC1=O` [Compound 29], the concentration for half-maximal inhibition (IC50) in the assay on PC-9 (Δ19del) cells came out at 14.7 nM.

In the case of `CN1CC2(C1)CN(c1cc3c(Nc4cccc(Cl)c4F)ncnc3cc1OC(F)F)C(=O)O2` [Compound 45], the IC50 in the assay with PC-9 (Δ19del) cells is 8.86 nM.

With `COc1cc2ncnc(Nc3ccc(F)c(Cl)c3F)c2cc1N1CC2(CN(C)C2)OC1=O` [Compound 49], in the assay with PC-9 (Δ19del) cells, the IC50 amounted to 4.2 nM.

As for `COc1cc2ncnc(Nc3ccc(F)c(Cl)c3)c2cc1N1CC2(CCN(C)CC2)OC1=O` [Formate of compound 2], the values for the IC50 against EGFR [d746-750], against EGFR [L858R] and in the assay on PC-9 (Δ19del) cells were 16.5 nM, 48.1 nM and 165 nM, respectively.

With `COc1cc2ncnc(Nc3cccc(Cl)c3F)c2cc1N1CC2(CCN(C)CC2)OC1=O` [Formate of compound 3], the IC50 is 0.02 nM against EGFR [d746-750], 0.1 nM at EGFR [L858R], 3 nM in the assay with PC-9 (Δ19del) cells and 96 nM in the assay on A431 cells.

As for `COc1cc2ncnc(Nc3cccc(Cl)c3OC)c2cc1N1CC2(CCN(C)CC2)OC1=O` [Formate of compound 4], the figures for the concentration for half-maximal inhibition (IC50) at EGFR [d746-750], against EGFR [L858R] and in the assay with PC-9 (Δ19del) cells were 55.4 nM, 30.1 nM and 396 nM, respectively.

With `COc1cc2ncnc(Nc3cccc(Cl)c3F)c2cc1N1CC2(CCN(C(C)C)CC2)OC1=O` [Formate of compound 5], the IC50 with PC-9 (Δ19del) cells was 2.73 nM.

Take `COc1cc2ncnc(Nc3ccc(Cl)c(Cl)c3F)c2cc1N1CC2(CCN(C)CC2)OC1=O` [Formate of compound 6]: the IC50 is under 0.015 nM on EGFR WT, 0.07 nM on EGFR [d746-750] and 4.9 nM with PC-9 (Δ19del) cells.

On to `COc1cc2ncnc(Nc3ccc(F)c(Cl)c3F)c2cc1N1CC2(CCN(C)CC2)CC1=O` [Formate of compound 10], for which the 50% inhibitory concentration (IC50) in the assay on PC-9 (Δ19del) cells is 6.01 nM; in the assay with A431 cells it was 73 nM.

Regarding `CN1CCC2(CC1)CN(c1ccc3ncnc(Nc4cccc(Cl)c4F)c3c1)C(=O)O2` [Formate of compound 12], the IC50 at EGFR WT is 0.017 nM; against EGFR [d746-750], 0.085 nM; with PC-9 (Δ19del) cells it was 9.11 nM; in the assay on A431 cells, 46 nM.

As to `COc1cc2ncnc(Nc3cccc(Cl)c3F)c2cc1N1CC2(CN(C)C2)OC1=O` [Formate of compound 13], the IC50 was found to be 0.016 nM at EGFR WT, 0.052 nM against EGFR [d746-750] and 5.34 nM in the assay on PC-9 (Δ19del) cells.

Consider `COc1cc2ncnc(Nc3cccc(Cl)c3F)c2cc1N1CC2(COC2)OC1=O` [Formate of compound 15], for which the IC50 with PC-9 (Δ19del) cells came out at 23 nM.

For `COc1cc2ncnc(Nc3cccc(Cl)c3F)c2cc1N1C(=O)OC2CN(C)CCC21` (stereo not shown) [Formate of compound 17], the IC50 in the assay with PC-9 (Δ19del) cells was 29.4 nM.

Turning to `COc1cc2ncnc(-n3ccc4c(Cl)cccc43)c2cc1N1CC2(CCN(C)CC2)OC1=O` [Formate of compound 19], the IC50 in the assay on PC-9 (Δ19del) cells was determined as 1280 nM.

Take `COc1cc2ncnc(Nc3cccc(Cl)c3F)c2cc1N1CC2(CCN(C)CC2C)OC1=O` (stereo not shown) [Formate of compound 20]: the IC50 in the assay on PC-9 (Δ19del) cells worked out at 2.17 nM.

For `CCC1CN(C)CCC12CN(c1cc3c(Nc4cccc(Cl)c4F)ncnc3cc1OC)C(=O)O2` (stereo not shown) [Formate of compound 21], the IC50 in the assay with PC-9 (Δ19del) cells worked out at 2.96 nM.

Regarding `Cc1cc2ncnc(Nc3cccc(Cl)c3F)c2cc1N1CC2(CCN(C)CC2)OC1=O` [Formate of compound 22], in the assay with PC-9 (Δ19del) cells, the IC50 was 41.4 nM.

For `COc1cc2ncnc(Nc3c(F)ccc(Cl)c3F)c2cc1N1CC2(CCN(C)CC2)OC1=O` [Formate of compound 24], in the assay on PC-9 (Δ19del) cells, the IC50 was found to be 7.53 nM.

With `COc1cc2ncnc(-c3cn(C)c4ccccc34)c2cc1N1CC2(CN(C)C2)OC1=O` [Formate of compound 28], the 50% inhibitory concentration (IC50) in the assay with PC-9 (Δ19del) cells was 250 nM.

As for `CC(C)N1CC2(CN(c3ccc4ncnc(Nc5cccc(Cl)c5F)c4c3)C(=O)O2)C1` [Formate of compound 33], the IC50 on EGFR WT was 0.114 nM; at EGFR [d746-750] it was 0.29 nM.

On to `COc1cc2ncnc(Nc3ccc(Cl)cc3F)c2cc1N1CC2(CN(C)C2)OC1=O` [Formate of compound 46], for which, in the assay with PC-9 (Δ19del) cells, the half-maximal inhibitory concentration (IC50) was found to be 29.8 nM.

Turning to `COc1cc2ncnc(Nc3cccc(C)c3F)c2cc1N1CC2(CN(C)C2)OC1=O` [Formate of compound 48], the IC50 in the assay on PC-9 (Δ19del) cells stood at 8.55 nM.

Take `CCCN1CC2(C1)CN(c1cc3c(Nc4cccc(Cl)c4F)ncnc3cc1OC)C(=O)O2` [Hydrochloride of compound 30]: the IC50 was found to be 0.021 nM at EGFR WT, 0.052 nM against EGFR [d746-750], 11.2 nM in the assay on PC-9 (Δ19del) cells and 71 nM in the assay on A431 cells.

`COc1cc2ncnc(Nc3cccc(Cl)c3F)c2cc1N1CC2(CN(C3CC3)C2)OC1=O` [Hydrochloride of compound 31]: in the assay on PC-9 (Δ19del) cells, the IC50 turned out to be 15.3 nM.
